Reference: patent US20060111396A1, “4-Phenyl substituted tetrahydroisoquinolines and use thereof to block reuptake of norepinephrine, dopamine and serotonin” (AMR Technology, Inc., priority 2004, published 2006)
Values joined by “and” are separate entries in the source; they are usually repeats but may differ in a detail not shown here. Identical values can stand only once. Counter-ions that a name gives are not always drawn.

Assays:
[1] = test system: dopamine transporter protein over the norepinephrine transporter protein; settings: selectivity for dopamine transporter protein over norepinephrine transporter protein; cited from earlier work

Q: With `CN1Cc2cc(C(F)(F)F)ccc2C(c2ccccc2)C1` (stereo not drawn) as the compound, how does the melting point read?
A: The melting point was 257 to 275 °C.

Q: With `Cc1ccc2c(c1)C(C)N(C)CC2c1ccccc1` (stereo not drawn) as the compound, how does the melting point read?
A: Its melting point is 87 to 89 °C.

Q: Which melting point does the source give for `FCc1ccc2c(c1CF)CN(CF)CC2c1ccccc1` (stereo not drawn) here?
A: The melting point was 108 to 113 °C.

Q: Which melting point does the source give for `Cc1c(F)ccc2c1CN(C)CC2c1ccccc1` (stereo not drawn) here?
A: Its melting point is 185 to 186 °C.

Q: For `COc1c(C)ccc2c1CN(C)CC2c1ccccc1` (stereo not drawn), which melting point is on record?
A: Its melting point is 130 to 131 °C.

Q: With `Cc1ccc2c(c1O)CN(C)CC2c1ccccc1` (stereo not drawn) as the compound, how does the melting point read?
A: Its melting point is 260 to 261 °C.

Q: For `CN1Cc2cc(OC(F)(F)F)ccc2C(c2ccccc2)C1` (stereo not drawn), which melting point is on record?
A: The melting point was 150 to 151 °C (dec.).

Q: For `CN1Cc2cc(Oc3ccccc3)ccc2C(c2ccccc2)C1` (stereo not drawn), which melting point is on record?
A: The melting point was 175 to 176 °C (dec.).

Q: For `CN1Cc2cc(OCc3ccccc3)ccc2C(c2ccccc2)C1` (stereo not drawn), which melting point is on record?
A: The melting point was 155 to 156 °C.

Q: Which melting point does the source give for `Cc1ccc2c(c1)CN(C)CC2c1ccc(F)c(C)c1` (stereo not drawn) here?
A: The melting point was 174 to 175 °C.

Q: Which melting point does the source give for `CNCc1cccc2c1CN(C)CC2c1ccccc1` (stereo not drawn) here?
A: The melting point was 278 to 282 °C.

Q: With `CN1Cc2c(CO)cccc2C(c2ccccc2)C1` (stereo not drawn) as the compound, how does the melting point read?
A: The melting point was 144 to 146 °C.

Q: With `CN1Cc2ccccc2C(c2cc(F)cc(F)c2)C1` (stereo not drawn) (as salt: HCl) as the compound, how does the melting point read?
A: The melting point was 230 to 233 °C and 230 to 235 °C.

Q: Which melting point does the source give for `Cc1cc(F)c2c(c1)C(C)N(C)C(F)C2c1ccccc1` (stereo not drawn) (as salt: HCl) here?
A: Its melting point is 194 to 197 °C (dec.).

Q: For `CNCc1ccc2c(c1F)CN(C)CC2c1ccccc1` (stereo not drawn) (as salt: HCl), which melting point is on record?
A: Its melting point is 185 to 205 °C.

Q: For `CN1Cc2cc(CO)ccc2C(c2ccccc2)C1` (stereo not drawn) (as salt: HCl), which melting point is on record?
A: Its melting point is 237 to 240 °C (dec.).

Q: With `Cc1ccc2c(c1F)CN(C)CC2c1ccccc1` (stereo not drawn) (as salt: hydrochloride) as the compound, how does the melting point read?
A: Its melting point is 215 to 216 °C.

Q: For `COC(=O)C(c1ccccc1)C1CCCCN1` (stereo not drawn) [Methylphenidate], which “DAT/NET Ki ratio” value [1] is on record?
A: Its value is 0.1.
